Experiment: In vivo biodistribution of ^225Ac complexes after intravenous injection
Set-up: species or system C57BL/6 mice
Procedure: In Vivo Biodistribution of ^225Ac Complexes of Macropa and DOTA. All experiments were approved by the Institutional Animal Care Committee (IACC) of the University of British Columbia and were performed in accordance with the Canadian Council on Animal Care Guidelines. A total of 9 female C57BL/6 mice (6-8 weeks old, 20-25 g) were used for the biodistribution study of each radiometal complex, n=3 for each time point.
Macropa (100 μL of a 1 mg/mL solution in NH4OAc) was diluted with 387 μL of NH4OAc (1 M, pH 7), and an aliquot (203 μL) of ^225Ac(NO3)3 (˜157 kBq) was then added; the pH of this solution was adjusted to 6.5-7 by the addition of 1 M NaOH (210 μL, trace metal grade). After 5 min at ambient temperature, the reaction solution was analyzed by TLC (0.4 M pH 4 sodium citrate as the eluent), which confirmed >95% radiochemical yield. The reaction was allowed to proceed overnight, and the radiochemical yield was again confirmed to be >95% the following morning. At this time, mice were anesthetized by 2% isoflurane, and approximately 100 μL (10-15 kBq) of the [^225Ac(macropa)]^+ complex were injected into the tail vein of each mouse. After injection, mice were allowed to recover and roam freely in their cages, and were euthanized by CO2 inhalation at 15 min, 1 h, or 5 h (n=3 at each time point) post-injection. Blood was collected by cardiac puncture and placed into an appropriate test tube for scintillation counting. Tissues collected included heart, liver, kidneys, lungs, small intestine, large intestine, brain, bladder, spleen, stomach, pancreas, bone, thyroid, tail, urine, and feces. Tissues were weighed and then counted with a calibrated gamma counter (Packard, Cobra II model 5002) using three energy windows: 60-120 keV (window A), 180-260 keV (window B), and 400-480 keV (window C). Counting was performed both immediately after sacrifice and after 7 days; counts were decay corrected from the time of injection and then converted to the percentage of injected dose (% ID) per gram of tissue (% ID/g). No differences were noted between the data; therefore, the biodistributions are reported using the data acquired immediately using window A.
The biodistribution studies of [^225Ac(DOTA)]^− and ^225Ac(NO3)3 were carried out as described above for [^225Ac(macropa)]^+, with the following modifications. [^225Ac(DOTA)]^− was prepared by adding ^225Ac(NO3)3 (338 μL, 1.1 MBq) to a solution of DOTA (100 μg, 20 mg/mL in H2O) in NH4OAc (467 μL, 0.15 M, pH 7). The pH of the solution was adjusted to 7 using NH4OAc (150 μL, 1 M, pH 7) and the solution was heated at 85° C. for 45 min. RCY>99% was confirmed by TLC as described above. [^225Ac(DOTA)]^− was diluted with saline to a final concentration of 0.05 MBq/100 μL, and 100 μL were injected into each mouse. ^225Ac(NO3)3 (˜58 μL, 0.4 MBq) was diluted and injected in the same manner as [^225Ac(DOTA)]^−. One mouse that was to be euthanized at the 5 h time point in the [^225Ac(DOTA)]^− study died shortly after injection. In the same manner, one mouse that was to be euthanized at the 1 h time point in the ^225Ac(NO3)3 study died.
The in vivo stability [^225Ac(macropa)]^+ was examined by comparing its biodistribution to those of ^225Ac(NO3)3 and [^225Ac(DOTA)]^−. C57BL/6 mice were injected via tail vein with 10-50 kBq of each radiometal complex and were sacrificed after 15 min, 1 h, or 5 h. The amount of ^225Ac retained in each organ was quantified by gamma counting and reported as the percent of injected dose per gram of tissue (% ID/g). The results of these studies are compiled in Tables 1-3. Inadequate stability of an ^225Ac complex leading to the loss of radioisotope in vivo is manifested by the accumulation of ^225Ac in the liver, spleen, and bone of mice.^[11,12,32] […] The biodistribution profile of [^225Ac(macropa)]^+ (FIG. 3B) differs markedly from that of ^225Ac(NO3)3. […]

[1] = 15 min after i.v. injection, energy window A (60-120 keV)
[2] = 15 min after i.v. injection, energy window B (180-260 keV)
[3] = 15 min after i.v. injection, energy window C (400-480 keV)
[4] = 1 h after i.v. injection, energy window A (60-120 keV)
[5] = 1 h after i.v. injection, energy window B (180-260 keV)

SMILES: O=[N+]([O-])[O-].O=[N+]([O-])[O-].O=[N+]([O-])[O-].[225Ac] [^225Ac(NO3)3]
- % ID/g in bladder [1]: 1.477 % ID/g
- % ID/g in blood [1]: 40.966 % ID/g
- % ID/g in bone (femur + joint) [1]: 2.764 % ID/g
- % ID/g in brain [1]: 0.614 % ID/g
- % ID/g in feces [1]: 0.240 % ID/g
- % ID/g in heart [1]: 8.557 % ID/g
- % ID/g in kidneys [1]: 10.468 % ID/g
- % ID/g in large intestines [1]: 1.116 % ID/g
- % ID/g in liver [1]: 22.899 % ID/g
- % ID/g in lungs [1]: 12.757 % ID/g
- % ID/g in pancreas [1]: 2.366 % ID/g
- % ID/g in small intestines [1]: 2.002 % ID/g
- % ID/g in spleen [1]: 22.733 % ID/g
- % ID/g in stomach [1]: 2.348 % ID/g
- % ID/g in tail [1]: 7.459 % ID/g
- % ID/g in thyroids [1]: 4.391 % ID/g
- % ID/g in urine [1]: 5.527 % ID/g
- % ID/g in bladder [2]: 1.6996 % ID/g
- % ID/g in blood [2]: 41.5628 % ID/g
- % ID/g in bone (femur + joint) [2]: 2.7487 % ID/g
- % ID/g in brain [2]: 0.6536 % ID/g
- % ID/g in feces [2]: 0.3857 % ID/g
- % ID/g in heart [2]: 8.3605 % ID/g
- % ID/g in kidneys [2]: 9.6424 % ID/g
- % ID/g in large intestines [2]: 1.1570 % ID/g
- % ID/g in liver [2]: 23.6091 % ID/g
- % ID/g in lungs [2]: 12.9714 % ID/g
- % ID/g in pancreas [2]: 2.2821 % ID/g
- % ID/g in small intestines [2]: 1.9641 % ID/g
- % ID/g in spleen [2]: 24.0497 % ID/g
- % ID/g in stomach [2]: 2.3704 % ID/g
- % ID/g in tail [2]: 8.0722 % ID/g
- % ID/g in thyroids [2]: 9.6295 % ID/g
- % ID/g in urine [2]: 5.0951 % ID/g
- % ID/g in bladder [3]: 1.9351 % ID/g
- % ID/g in blood [3]: 42.3521 % ID/g
- % ID/g in bone (femur + joint) [3]: 3.4560 % ID/g
- % ID/g in brain [3]: 0.6755 % ID/g
- % ID/g in feces [3]: 0.4896 % ID/g
- % ID/g in heart [3]: 9.0992 % ID/g
- % ID/g in kidneys [3]: 14.2266 % ID/g
- % ID/g in large intestines [3]: 1.5716 % ID/g
- % ID/g in liver [3]: 24.1147 % ID/g
- % ID/g in lungs [3]: 14.4797 % ID/g
- % ID/g in pancreas [3]: 2.4405 % ID/g
- % ID/g in small intestines [3]: 2.0956 % ID/g
- % ID/g in spleen [3]: 25.4263 % ID/g
- % ID/g in stomach [3]: 2.4232 % ID/g
- % ID/g in tail [3]: 9.1381 % ID/g
- % ID/g in thyroids [3]: 3.5934 % ID/g
- % ID/g in urine [3]: 19.8282 % ID/g
- % ID/g in bladder [4]: 0.9047 % ID/g
- % ID/g in blood [4]: 20.8234 % ID/g
- % ID/g in bone (femur + joint) [4]: 2.4707 % ID/g
- % ID/g in brain [4]: 0.2995 % ID/g
- % ID/g in feces [4]: 0.2189 % ID/g
- % ID/g in heart [4]: 4.4261 % ID/g
- % ID/g in kidneys [4]: 7.2170 % ID/g
- % ID/g in large intestines [4]: 0.6035 % ID/g
- % ID/g in liver [4]: 39.8269 % ID/g
- % ID/g in lungs [4]: 8.2412 % ID/g
- % ID/g in pancreas [4]: 2.1771 % ID/g
- % ID/g in small intestines [4]: 1.5594 % ID/g
- % ID/g in spleen [4]: 34.8831 % ID/g
- % ID/g in stomach [4]: 1.6211 % ID/g
- % ID/g in tail [4]: 5.7939 % ID/g
- % ID/g in thyroids [4]: 2.5988 % ID/g
- % ID/g in urine [4]: 4.5194 % ID/g
- % ID/g in bladder [5]: 0.8092 % ID/g
- % ID/g in blood [5]: 21.4460 % ID/g
- % ID/g in bone (femur + joint) [5]: 2.7705 % ID/g
- % ID/g in brain [5]: 0.3247 % ID/g
- % ID/g in feces [5]: 0.3300 % ID/g
- % ID/g in heart [5]: 4.5832 % ID/g
- % ID/g in kidneys [5]: 6.8770 % ID/g
- % ID/g in large intestines [5]: 0.5629 % ID/g
- % ID/g in liver [5]: 41.0995 % ID/g

Source: patent US11554182B2, “Macrocyclic complexes of alpha-emitting radionuclides and their use in targeted radiotherapy of cancer” (CORNELL UNIVERSITY, priority 2017, dated 2023)
